Format in all cases: cell-based
The target in test [1] is T1, TRPM8 (Mus musculus, UniProt Q8R4D5). Briefly: Inside-out single-channel recording of menthol-activated TRPM8 at +80 mV. On the set-up: expressed in transfected cells; host or cells: HEK293T. Here is the method: (§1) HEK293T cells were cultured in Dulbecco's modified Eagle culture medium under a 37° C., 5% CO2 environment, 10% fetal bovine serum, penicillin (100 U/mL), and streptomycin ([…]) was needed to add into the culture medium. Transient transfection was conducted by using Lipo 2000 (Invitrogen) transfection kit and following the instruction manual.
T1 sequence (Q8R4D5 whole entry): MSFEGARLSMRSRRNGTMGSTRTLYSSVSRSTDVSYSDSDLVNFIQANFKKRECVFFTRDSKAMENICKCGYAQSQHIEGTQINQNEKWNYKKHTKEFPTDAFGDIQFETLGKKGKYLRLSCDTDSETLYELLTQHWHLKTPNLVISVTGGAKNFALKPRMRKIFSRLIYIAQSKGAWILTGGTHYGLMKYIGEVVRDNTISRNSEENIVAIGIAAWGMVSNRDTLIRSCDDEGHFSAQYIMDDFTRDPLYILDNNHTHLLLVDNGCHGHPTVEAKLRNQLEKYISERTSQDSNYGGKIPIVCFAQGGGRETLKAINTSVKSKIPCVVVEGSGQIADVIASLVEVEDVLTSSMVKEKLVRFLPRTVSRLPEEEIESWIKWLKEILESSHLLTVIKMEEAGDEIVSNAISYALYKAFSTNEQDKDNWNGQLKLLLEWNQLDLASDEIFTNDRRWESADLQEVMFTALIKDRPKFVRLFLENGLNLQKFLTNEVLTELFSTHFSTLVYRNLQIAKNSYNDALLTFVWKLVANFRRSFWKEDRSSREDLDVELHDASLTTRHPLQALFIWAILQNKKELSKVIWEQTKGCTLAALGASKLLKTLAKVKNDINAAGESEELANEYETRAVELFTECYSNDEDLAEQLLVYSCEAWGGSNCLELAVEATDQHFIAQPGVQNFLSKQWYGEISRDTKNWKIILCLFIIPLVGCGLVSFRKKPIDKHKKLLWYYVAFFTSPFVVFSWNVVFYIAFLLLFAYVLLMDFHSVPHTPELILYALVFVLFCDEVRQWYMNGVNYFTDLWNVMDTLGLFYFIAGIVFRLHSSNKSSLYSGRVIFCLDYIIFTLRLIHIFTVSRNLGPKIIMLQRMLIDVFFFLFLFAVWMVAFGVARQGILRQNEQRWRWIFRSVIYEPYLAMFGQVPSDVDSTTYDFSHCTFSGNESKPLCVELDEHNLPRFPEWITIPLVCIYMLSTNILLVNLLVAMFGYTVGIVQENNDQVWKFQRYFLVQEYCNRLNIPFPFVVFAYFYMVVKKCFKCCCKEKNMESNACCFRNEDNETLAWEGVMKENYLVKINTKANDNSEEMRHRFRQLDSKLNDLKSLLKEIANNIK
(§2) Electrophysiological experiment recordings were performed on the cells within 24˜48 h of transient transfections. Specifically, single channel electrophysiological recordings were performed within 8 h after transfection.
(§3) Measurement of the cell currents was respectively performed in the whole-cell recording mode, inside-out recording mode or outside-out recording mode with a HEKA EPC10 amplifier. In the whole cell electrophysiological recordings, glass microelectrodes made of borosilicate material were fire-polished to a original electrode resistance of about 3-6 MΩ. Serial resistance was compensated by 60%. The whole cell electrophysiological recordings were performed at ±80 mV. For single channel electrophysiological recordings, glass microelectrodes were fire-polished to a higher resistance of 6-8 MΩ2. Current signal was sampled at 10 kHz and filtered at 2.9 kHz. Membrane potential of the cell membrane would be clamped at +80 mV. All electrophysiological recordings were performed at room temperature (22° C.) (the maximum variation is 1° C.).
There were different bath and pipette solutions prepared for different ion channels current measurement. For ion channels such as TRPM8, TRPV1, TRPV2, TRPV3 and TRPA1, the formula of the bath and pipette solutions was: 130 mM NaCl, 0.2 mM EDTA and 3 mM HEPES, pH=7.2. For the current measurement of TRPM4 ion channel, the formula of the bath solution was: 130 mM NaCl and 3 mM HEPES, pH=7.2, and the formula of the pipette solution was: 500 μM CaCl2), 130 mM NaCl and 3 mM HEPES, pH=7.2. For the current measurement of TRPM2 ion channel, the formula of the bath solution was: 147 mM NaCl, 2 mM KCl, 1 mM MgCl2, 10 mM HEPES, 2 mM CaCl2) 13 mM Glucose, pH=7.4, and the formula of the pipette solution was: 147 mM NaCl, 1 mM MgCl2, 10 mM HEPES, pH=7.4. For the current measurement of Nav1.5, Nav1.7 ion channels, the formula of the bath solution was: 140 mM NaCl, 3 mM KCl, 1 mM MgCl2, 1 mM CaCl2), 10 mM HEPES, pH=7.2 and the formula of the pipette solution was: 140 mM CsF, 1 mM EGTA, 10 mM NaCl, 10 mM MgCl2, 3 mM KCl, pH=7.2. To evoke sodium channel current, the membrane potential was increased from −80 mV to +10 mV.
A rapid solution changer with a gravity-driven perfusion system (RSC-200, BioLogic) was used to rapidly perfuse specific solutions into the cells to be tested. Each solution was delivered through a separate tube so that there is no mixing of solutions. The glass microelectrode with a membrane patch was placed directly below the outlet of the perfusion tube during the electrophysiology recordings.

For test [2], the target named is T2, TRPM2 (Homo sapiens, UniProt O94759).
T2 construct: expressed in transfected cells; host or cells: HEK293T
Briefly: Electrophysiological recording, ligand activation of TRPM2. On the procedure: as §1, §2
as §3, with “C.). […]” for “C.).”

The target of test [3] is T3, Nav1.5 (Homo sapiens, UniProt Q14524).
T3 construct: expressed in transfected cells; host or cells: HEK293T
T3 sequence (Q14524 whole entry): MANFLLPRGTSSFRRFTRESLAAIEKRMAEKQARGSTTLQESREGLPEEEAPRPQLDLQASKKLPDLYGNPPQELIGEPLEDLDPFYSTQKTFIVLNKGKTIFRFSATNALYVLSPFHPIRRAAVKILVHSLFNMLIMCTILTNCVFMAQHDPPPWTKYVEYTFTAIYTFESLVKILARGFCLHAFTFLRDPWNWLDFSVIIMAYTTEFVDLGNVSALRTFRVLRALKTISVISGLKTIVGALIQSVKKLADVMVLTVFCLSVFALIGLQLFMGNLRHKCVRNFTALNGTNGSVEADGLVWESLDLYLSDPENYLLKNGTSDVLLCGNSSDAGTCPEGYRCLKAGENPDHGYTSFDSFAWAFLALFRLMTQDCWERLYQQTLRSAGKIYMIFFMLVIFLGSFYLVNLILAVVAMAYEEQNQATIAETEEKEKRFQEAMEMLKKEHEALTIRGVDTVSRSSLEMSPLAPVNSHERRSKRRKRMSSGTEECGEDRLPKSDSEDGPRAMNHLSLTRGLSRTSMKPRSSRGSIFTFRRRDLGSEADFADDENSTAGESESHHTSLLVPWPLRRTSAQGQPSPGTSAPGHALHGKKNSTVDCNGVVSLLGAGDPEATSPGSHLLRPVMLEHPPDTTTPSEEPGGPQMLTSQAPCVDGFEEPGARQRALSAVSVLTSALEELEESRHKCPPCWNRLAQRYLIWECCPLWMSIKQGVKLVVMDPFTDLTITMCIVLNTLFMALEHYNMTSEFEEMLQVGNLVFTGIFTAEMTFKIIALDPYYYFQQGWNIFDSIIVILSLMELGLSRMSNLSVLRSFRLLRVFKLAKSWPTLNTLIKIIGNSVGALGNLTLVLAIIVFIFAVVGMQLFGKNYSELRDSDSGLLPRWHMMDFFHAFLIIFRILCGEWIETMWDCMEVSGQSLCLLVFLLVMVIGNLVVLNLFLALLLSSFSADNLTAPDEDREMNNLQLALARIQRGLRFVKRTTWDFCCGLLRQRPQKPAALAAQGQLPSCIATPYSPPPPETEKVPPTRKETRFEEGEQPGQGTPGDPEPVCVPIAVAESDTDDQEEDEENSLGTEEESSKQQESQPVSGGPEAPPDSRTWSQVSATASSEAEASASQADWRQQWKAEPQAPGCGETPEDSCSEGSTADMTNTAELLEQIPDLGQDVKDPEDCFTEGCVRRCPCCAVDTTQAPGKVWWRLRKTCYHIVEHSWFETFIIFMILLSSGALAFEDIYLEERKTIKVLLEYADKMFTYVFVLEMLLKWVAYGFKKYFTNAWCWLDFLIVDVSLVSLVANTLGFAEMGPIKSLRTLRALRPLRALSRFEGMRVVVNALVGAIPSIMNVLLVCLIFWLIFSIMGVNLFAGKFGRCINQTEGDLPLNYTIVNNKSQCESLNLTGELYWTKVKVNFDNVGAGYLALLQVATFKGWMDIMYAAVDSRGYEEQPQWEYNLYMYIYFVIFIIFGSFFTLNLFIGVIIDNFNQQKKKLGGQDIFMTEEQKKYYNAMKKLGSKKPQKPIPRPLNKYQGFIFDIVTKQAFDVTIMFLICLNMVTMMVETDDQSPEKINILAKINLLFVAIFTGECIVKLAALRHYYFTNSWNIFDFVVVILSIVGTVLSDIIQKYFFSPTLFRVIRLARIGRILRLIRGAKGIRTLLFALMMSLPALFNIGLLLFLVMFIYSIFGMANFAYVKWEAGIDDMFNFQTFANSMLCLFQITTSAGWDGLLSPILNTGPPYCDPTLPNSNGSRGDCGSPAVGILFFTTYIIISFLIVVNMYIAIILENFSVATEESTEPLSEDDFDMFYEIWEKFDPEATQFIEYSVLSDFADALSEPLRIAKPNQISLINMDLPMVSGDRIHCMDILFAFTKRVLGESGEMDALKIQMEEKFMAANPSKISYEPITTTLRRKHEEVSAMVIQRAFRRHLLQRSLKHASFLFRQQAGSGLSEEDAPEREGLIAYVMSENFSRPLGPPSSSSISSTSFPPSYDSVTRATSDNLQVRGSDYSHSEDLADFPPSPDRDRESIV
Briefly: Electrophysiological recording of Nav1.5 sodium current. On the procedure:
as §1, §2
as §3, with “C.). […]” for “C.).”

Test [4] has as its target T4, TRPV1 (Homo sapiens, UniProt Q8NER1).
T4 construct: expressed in transfected cells; host or cells: HEK293T
As to the kind of experiment: Electrophysiological recording, ligand activation of TRPV1. On the procedure: as §1, §2
as §3, with “C.). […]” for “C.).”

In test [5] the target is T1, TRPM8. Briefly: Inside-out single-channel recording of cold-activated TRPM8 (16° C.) at +80 mV. Also on record: expressed in transfected cells; host or cells: HEK293T. The conditions noted are these: DeC-1.2 100 μM at 16° C. Here is the method: as §1, §2
as §3, with “All electrophysiological recordings were performed at room temperature (22° C.) (the maximum variation is 1° C.).” left out
There were different bath and pipette solutions prepared for different ion channels current measurement. […]

Test [6] deals with T5, TRPV2 (Homo sapiens, UniProt Q9Y5S1).
T5 construct: expressed in transfected cells; host or cells: HEK293T
T5 sequence (Q9Y5S1 1-764): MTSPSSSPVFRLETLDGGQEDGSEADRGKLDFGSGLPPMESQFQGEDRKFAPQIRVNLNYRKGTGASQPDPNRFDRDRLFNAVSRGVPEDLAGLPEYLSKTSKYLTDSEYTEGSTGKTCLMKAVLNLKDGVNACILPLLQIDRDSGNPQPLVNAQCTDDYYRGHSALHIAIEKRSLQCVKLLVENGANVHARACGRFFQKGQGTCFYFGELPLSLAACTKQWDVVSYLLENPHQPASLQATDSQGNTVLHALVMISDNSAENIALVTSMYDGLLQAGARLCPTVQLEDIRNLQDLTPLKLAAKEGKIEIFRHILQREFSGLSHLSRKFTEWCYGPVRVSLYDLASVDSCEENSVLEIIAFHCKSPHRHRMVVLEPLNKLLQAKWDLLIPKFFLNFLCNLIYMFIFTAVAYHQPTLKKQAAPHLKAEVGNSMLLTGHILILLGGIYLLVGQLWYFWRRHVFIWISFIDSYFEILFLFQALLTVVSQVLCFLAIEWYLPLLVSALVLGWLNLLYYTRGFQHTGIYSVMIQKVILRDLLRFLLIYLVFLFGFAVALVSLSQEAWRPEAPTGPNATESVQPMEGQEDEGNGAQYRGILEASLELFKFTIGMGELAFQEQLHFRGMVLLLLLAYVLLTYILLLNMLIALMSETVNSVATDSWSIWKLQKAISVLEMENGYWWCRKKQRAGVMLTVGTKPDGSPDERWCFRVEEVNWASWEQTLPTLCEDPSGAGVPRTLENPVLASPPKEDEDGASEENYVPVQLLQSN
As to the kind of experiment: Electrophysiological recording, ligand activation of TRPV2. Particulars: IC 50 TRPV2. Here is the method:
as §1, §2
as §3, with “C.). […]” for “C.).”

Entries after “also recorded” stand apart in the source; their conditions may differ. Where a SMILES comes first, the peptide text is derived from it. Some results are limits rather than exact numbers.

T4 sequence (Q8NER1 whole entry, species assumed): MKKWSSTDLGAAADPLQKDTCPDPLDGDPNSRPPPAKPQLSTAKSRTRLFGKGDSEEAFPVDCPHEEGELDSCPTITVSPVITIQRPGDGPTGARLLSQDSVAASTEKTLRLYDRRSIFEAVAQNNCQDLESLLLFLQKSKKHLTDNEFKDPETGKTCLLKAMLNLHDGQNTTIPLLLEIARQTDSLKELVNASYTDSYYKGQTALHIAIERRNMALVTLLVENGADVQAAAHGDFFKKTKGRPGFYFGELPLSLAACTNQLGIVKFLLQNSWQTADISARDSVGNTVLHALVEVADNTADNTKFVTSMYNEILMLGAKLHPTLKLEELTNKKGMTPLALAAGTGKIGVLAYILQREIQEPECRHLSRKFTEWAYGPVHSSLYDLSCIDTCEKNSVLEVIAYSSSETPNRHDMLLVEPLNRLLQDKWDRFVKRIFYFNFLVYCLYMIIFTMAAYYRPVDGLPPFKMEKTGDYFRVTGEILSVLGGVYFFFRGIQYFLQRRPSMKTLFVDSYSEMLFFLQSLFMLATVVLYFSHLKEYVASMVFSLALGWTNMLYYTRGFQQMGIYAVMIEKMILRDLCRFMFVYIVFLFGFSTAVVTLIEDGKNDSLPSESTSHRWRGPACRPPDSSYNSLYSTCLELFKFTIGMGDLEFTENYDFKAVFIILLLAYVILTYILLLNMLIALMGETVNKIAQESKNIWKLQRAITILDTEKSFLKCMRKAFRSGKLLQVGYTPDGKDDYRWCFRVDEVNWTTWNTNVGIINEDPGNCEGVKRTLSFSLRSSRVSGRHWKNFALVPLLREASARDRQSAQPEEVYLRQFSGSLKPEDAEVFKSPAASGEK

As for `C[C@@H]1NC(=O)[C@H](CCCNC(=N)N)NC(=O)[C@H](CC(=O)O)NC(=O)[C@H](CCCNC(=N)N)NC(=O)[C@H](CCCNC(=N)N)NC(=O)[C@@H](N)CSSC[C@@H](C(=O)O)NC(=O)[C@H](CCCNC(=N)N)NC(=O)[C@H](CCC(N)=O)NC(=O)[C@H](CCCNC(=N)N)NC(=O)[C@H](Cc2ccc(O)cc2)NC(=O)[C@H](Cc2c[nH]cn2)NC(=O)[C@H](CCCNC(=N)N)NC1=O` [DeC-1.2, CRRDRARHYRQRC] (HELM PEPTIDE1{C.R.R.D.R.A.R.H.Y.R.Q.R.C}$PEPTIDE1,PEPTIDE1,1:R3-13:R3$$$V2.0; N-terminus and C-terminus assumed), the “open probability of TRPM8” value in test [1] (DeC-1.2 100 μM with saturated menthol (1 mM), n=5) was determined as 18.83±1.92%. The “change of single-channel conductance of menthol-activated TRPM8” value in test [1] (DeC-1.2 100 μM, menthol 1 mM) was “decreases significantly”. In test [1] (DeC-1.2 100 μM, menthol 1 mM, P<0.0001), the “change of open probability of menthol-activated TRPM8” value is “decreases significantly”. In addition, the half-inhibitory concentration (IC50) was above 100 µM in test [2], above 100 µM in test [3], above 100 µM in test [4] and above 5 µM in test [6]. Moreover, the “block of ligand activation of TRPM2” value in test [2] (DeC-1.2 up to 100 μM) is “not blocked”. The “inhibition of Nav channels” value in test [3] (Nav1.5) was “none of the TRP channels and Nav channels were inhibited”. In test [4] (DeC-1.2 5 μM), the “inhibition of ligand activation of TRPV1” value is reported as “failed to inhibit”. Besides, the “effect on open probability of cold-activated TRPM8” value in test [5] is “does not change significantly; also recorded: did not decrease the open probability”. Also, the “effect on single-channel conductance of cold-activated TRPM8” value in test [5] is “does not change significantly; also recorded: did not further reduce the single-channel conductance”.
